Patent publication US20080207638A1, “Compounds” (priority 2005, published 2008)
Where a name gives a salt, the structure may show the parent alone.

Columns and labels:
[1] = Rat pharmacokinetics; type: in vivo, male CD Sprague Dawley rats; conditions: 1 mg/kg i.v., 3 mg/kg oral
Description: Compounds were dosed to male CD Sprague Dawley rats by single intravenous or oral administration at a nominal dose level of 1 mgkg^−1 and 3 mgkg^−1 respectively. Compounds were formulated in 5% DMSO/45% PEG200/50% water. An intravenous profile was obtained by taking serial or terminal blood samples at 0.083, 0.25, 0.5, 1, 2, 4, and 7 h post-dose. An oral profile was obtained by taking serial or terminal blood samples at 0.25, 0.5, 1, 2, 4, 7 and 12 h post-dose. Blood samples were taken directly into heparinised tubes. Blood samples were prepared by protein precipitation and subjected to quantitative analysis by LC-MS/MS using compound-specific mass transitions. Drug concentration-time profiles were generated and non-compartmental PK analysis used to generate estimates of half-life, clearance, volume of distribution and oral bioavailability.

[2] = Dog pharmacokinetics; type: in vivo, male Beagle dogs; conditions: 1 mg/kg i.v., 2 mg/kg oral
Description: Compounds were dosed to male Beagle dogs by single intravenous or oral administration at a nominal dose level of 1 mgkg^−1 and 2 mgkg^−1 respectively. The study was carried out according to a crossover design such that the same dog was used for both dosing events and the dosing events occurred 1 week apart. Compounds were formulated in 5%DMSO/45%Peg2oO/50%water. An intravenous profile was obtained by taking serial blood samples at 0.083, 0.25, 0.5, 0.75, 1, 2, 4, 6 & 12 h post-dose. An oral profile was obtained by taking serial blood samples at 0.25, 0.5, 0.75, 1, 2, 4, 6, 12 & 24 h post-dose. Blood samples were taken directly into heparinised tubes. Blood samples were prepared by protein precipitation and subjected to quantitative analysis by LC-MS/MS using compound-specific mass transitions. Drug concentration-time profiles were generated and non-compartmental PK analysis used to generate estimates of half-life, clearance, volume of distribution and oral bioavailability.

[3] = CNS penetration; type: in vivo, male CD Sprague Dawley rats; conditions: male, CD Sprague Dawley, iv; rat, 1 mg/kg i.v., brain 5 min post-dose
Description: Compounds were dosed intravenously at a nominal dose level of 1 mgkg−1 to male CD Sprague Dawley rats. Compounds were formulated in 5% DMSO/45% PEG200/50% water. Blood samples were taken under terminal anaesthesia with isoflurane at 5 min post-dose and the brains were also removed for assessment of brain penetration. Blood samples were taken directly into heparinised tubes. Blood samples were prepared for analysis using protein precipitation and brain samples were prepared using extraction of drug from brain by homogenisation and subsequent protein precipitation. The concentration of parent drug in blood and brain extracts was determined by quantitative LC-MS/MS analysis using compound-specific mass transitions.

C[C@@H]1CCCN1CCCOc1ccc(N2CCN(C(=O)c3ccc(F)cc3F)CC2=O)cc1 [Example E1, 4-[(2,4-Difluorophenyl)carbonyl]-1-[4-({3-[(2R)-2-methyl-1-pyrrolidinyl]propyl)oxy)phenyl]-2-piperazinone, formate salt]
oral bioavailability [1]: approximately 48 % F | oral bioavailability [2]: approximately 100 % F | concentration at 5 min [3]: ~57.5 ng/g
